Usually IC50 stands for the concentration needed to halve the response being measured. The term pIC50 denotes the negative decadic logarithm of the IC50, by convention in mol/L.

The values below come from patent US20240277790A1, “RECOMBINANT BACULOVIRUSES, ALPHAVIRUS VIRUS-LIKE REPLICON PARTICLES PRODUCED THEREOF AND THEIR USES” (priority 2023, published 2024).

pIC50: −log10 of the molar value.

The test system of this experiment is mos-CHIK-VRPs. Briefly: VRP-based antiviral drug assay (luciferase) on Vero cells. Format: cell-based, CHIKV. The settings on record: Chikungunya virus, Vero cells, 2,500 IU VRPs/well, 1 hour + 5 hours at 34° C., read-out: IC50 of inhibition of VRP infection. How it is done: Luciferase activity in the mos-CHIK-VRPs infected Vero cells was measured using a commercial luciferase assay kit (Promega) in accordance with the manufacturer's instructions. Signals reflecting the luciferase activity was read by a microplate reader (BioTek).
Suramin and 6-azauridine (6-AU) (both from Sigma-Aldrich) were dissolved in water to prepare the stock solutions (suramin, 50 mg/ml, 35 mM; 6-AU, 50 mg/ml, 200 mM) and then stored at −20° C. until use. Vero cells were seeded at a density of 1.5×10^4 cells/well (96 well white/clear bottom plate), and then infected with 2,500 IU VRPs/well in the presence of serially diluted suramin or 6-AU in MEM for 1 hour at 34° C. The suramin- or 6-AU-treated cells were then grown in a 5% FBS medium containing the corresponding concentrations of suramin or 6-AU for another 5 hours at 34° C., then VRP activity was measured by luciferase assay.

Consider `O=c1cnn([C@@H]2O[C@H](CO)[C@@H](O)[C@H]2O)c(=O)[nH]1` [6-AU, 6-azauridine], for which the IC50 was found to be 1.29 µg/mL.
Take `Cc1ccc(C(=O)Nc2ccc(S(=O)(=O)O)c3cc(S(=O)(=O)O)cc(S(=O)(=O)O)c23)cc1NC(=O)c1cccc(NC(=O)Nc2cccc(C(=O)Nc3cc(C(=O)Nc4ccc(S(=O)(=O)O)c5cc(S(=O)(=O)O)cc(S(=O)(=O)O)c45)ccc3C)c2)c1` [suramin]: the negative-log IC50 (pIC50) is 4.09.
